Experimental findings from ChEMBL document CHEMBL1629661, “Carbapenem resistance among Pseudomonas aeruginosa strains from India: evidence for nationwide endemicity of multiple metallo-beta-lactamase clones (VIM-2, -5, -6, and -11 and the newly characterized VIM-18)” (2009) are described below.

≈ marks a conversion by molar mass, not a printed value.

Format in all cases: functional
The test system of assay [1] is Escherichia coli. Nature of the assay: Antimicrobial activity against Escherichia coli harboring plasmid pPCRScript by Etest.
Assay [2] has as its system Pseudomonas aeruginosa. Nature of the assay: Antimicrobial activity against Pseudomonas aeruginosa isolate 243-31C expressing beta-lactamase VIM-18 isolated from sputum of patient by broth microdilution method.
The test system of assay [3] is Escherichia coli. Nature of the assay: Antimicrobial activity against Escherichia coli harboring beta-lactamase VIM-2 by Etest.
The subject of assay [4] is Escherichia coli. Nature of the assay: Ratio of MIC for Escherichia coli harboring beta-lactamase VIM-2 to MIC for Escherichia coli harboring beta-lactamase VIM-18.
Assay [5] concerns Escherichia coli. Nature of the assay: Antimicrobial activity against Escherichia coli harboring beta-lactamase VIM-18 by Etest.
Assay [6] has as its system Pseudomonas aeruginosa. The assay is described as follows: Antimicrobial activity against Pseudomonas aeruginosa isolate 243-31C expressing beta-lactamase VIM-18 isolated from sputum of patient by broth microdilution method in presence of beta-lactamase inhibitor Tazobactam.

In the case of `C[C@@H](O)[C@H]1C(=O)N2C(C(=O)O)=C(S[C@@H]3CN[C@H](C(=O)Nc4cccc(C(=O)O)c4)C3)[C@H](C)[C@H]12`, the MIC in assay [1] was 0.006 µg/mL (≈ 0.0126 µM); in assay [2], above 8 µg/mL; in assay [3], 0.25 µg/mL (≈ 0.526 µM); in assay [5], 0.016 µg/mL (≈ 0.0336 µM). Besides, the Ratio in assay [4] stood at 9.

As to `CO/N=C(\C(=O)N[C@@H]1C(=O)N2C(C(=O)[O-])=C(C[N+]3(C)CCCC3)CS[C@H]12)c1csc(N)n1`, the MIC was 0.032 µg/mL (≈ 0.0666 µM) in assay [1], above 16 µg/mL in assay [2] and 0.5 µg/mL (≈ 1.04 µM) in assay [3].

On to `NCC[C@H](O)C(=O)N[C@@H]1C[C@H](N)[C@@H](O[C@H]2O[C@H](CN)[C@@H](O)[C@H](O)[C@H]2O)[C@H](O)[C@H]1O[C@H]1O[C@H](CO)[C@@H](O)[C@H](N)[C@H]1O` [AMIKACIN], for which, in assay [2], the MIC was above 32 µg/mL.

Take `CC1(C)S[C@@H]2[C@H](NC(=O)[C@H](N)c3ccccc3)C(=O)N2[C@H]1C(=O)O` [AMPICILLIN]: the minimum inhibitory concentration (MIC) is 4 µg/mL (≈ 11.4 µM) in assay [1], above 16 µg/mL in assay [2], above 256 µg/mL in assay [3] and 64 µg/mL (≈ 183 µM) in assay [5].

As to `C[C@H]1[C@H](NC(=O)/C(=N\OC(C)(C)C(=O)O)c2csc(N)n2)C(=O)N1S(=O)(=O)O` [AZTREONAM], the MIC in assay [2] turned out to be 16 µg/mL (≈ 36.7 µM); in assay [3] it was 0.032 µg/mL (≈ 0.0735 µM); in assay [5], 0.032 µg/mL (≈ 0.0735 µM).

For `Cc1nnc(SCC2=C(C(=O)O)N3C(=O)[C@@H](NC(=O)Cn4cnnn4)[C@H]3SC2)s1` [CEFAZOLIN], the minimum inhibitory concentration (MIC) in assay [1] is 2 µg/mL (≈ 4.4 µM); in assay [2], above 16 µg/mL; in assay [3], above 256 µg/mL; in assay [5], 32 µg/mL (≈ 70.4 µM). Moreover, in assay [4], the Ratio is 4.

`CO/N=C(\C(=O)N[C@@H]1C(=O)N2C(C(=O)O)=C(COC(C)=O)CS[C@H]12)c1csc(N)n1` [CEFOTAXIME]: the MIC in assay [1] amounted to 0.064 µg/mL (≈ 0.141 µM); in assay [3] it was 4 µg/mL (≈ 8.78 µM); in assay [5] it was 2 µg/mL (≈ 4.39 µM).

For the compound `CO[C@@]1(NC(=O)Cc2cccs2)C(=O)N2C(C(=O)O)=C(COC(N)=O)CS[C@@H]21` [CEFOXITIN], the MIC is 4 µg/mL (≈ 9.36 µM) in assay [1], above 16 µg/mL in assay [2], above 256 µg/mL in assay [3] and 8 µg/mL (≈ 18.7 µM) in assay [5]. Besides, the Ratio in assay [4] is listed as above 6.

Take `CC(C)(O/N=C(\C(=O)N[C@@H]1C(=O)N2C(C(=O)[O-])=C(C[n+]3ccccc3)CS[C@H]12)c1csc(N)n1)C(=O)O` [CEFTAZIDIME]: the MIC in assay [1] is 0.125 µg/mL (≈ 0.229 µM); in assay [2] it was above 16 µg/mL; in assay [3], 4 µg/mL (≈ 7.32 µM); in assay [5], 16 µg/mL (≈ 29.3 µM).

The compound `CO/N=C(\C(=O)N[C@@H]1C(=O)N2C(C(=O)O)=C(CSc3nc(=O)c(O)nn3C)CS[C@H]12)c1csc(N)n1` [CEFTRIAXONE] gave an MIC in assay [2] above 32 µg/mL.

In turn, `O=C(O)c1cn(C2CC2)c2cc(N3CCNCC3)c(F)cc2c1=O` [CIPROFLOXACIN] returned an MIC in assay [2] of 0.06 µg/mL (≈ 0.181 µM).

Regarding `C[C@@H](O)[C@H]1C(=O)N2C(C(=O)O)=C(S[C@@H]3CN[C@H](CNS(N)(=O)=O)C3)[C@H](C)[C@H]12` [DORIPENEM], in assay [2], the lowest concentration to inhibit growth (MIC) was 4 µg/mL (≈ 9.51 µM).

As to `C[C@@H](O)[C@H]1C(=O)N2C(C(=O)O)=C(SCCNC=N)C[C@H]12` [IMIPENEM ANHYDROUS], the results for the minimum inhibitory concentration (MIC) in assay [2] and in assay [3] were 8 µg/mL (≈ 26.7 µM) and 0.5 µg/mL (≈ 1.67 µM), respectively.

With `C[C@@H](O)[C@H]1C(=O)N2C(C(=O)O)=C(S[C@@H]3CN[C@H](C(=O)N(C)C)C3)[C@H](C)[C@H]12` [MEROPENEM], the MIC in assay [1] amounted to 0.032 µg/mL (≈ 0.0834 µM); in assay [2] it was 8 µg/mL (≈ 20.9 µM); in assay [3], 0.125 µg/mL (≈ 0.326 µM); in assay [5] it was 0.064 µg/mL (≈ 0.167 µM).

For `CCN1CCN(C(=O)N[C@@H](C(=O)N[C@@H]2C(=O)N3[C@@H]2SC(C)(C)[C@@H]3C(=O)O)c2ccccc2)C(=O)C1=O` [PIPERACILLIN], the MIC in assay [6] is above 64 µg/mL; in assay [1], 2 µg/mL (≈ 3.86 µM); in assay [2] it was above 64 µg/mL; in assay [3] it was 4 µg/mL (≈ 7.73 µM); in assay [5] it was 8 µg/mL (≈ 15.5 µM).

The compound `CN(C)[C@@H]1C(O)=C(C(N)=O)C(=O)[C@@]2(O)C(O)=C3C(=O)c4c(O)cccc4[C@@](C)(O)[C@H]3C[C@@H]12` [TETRACYCLINE] came in with an MIC in assay [2] above 8 µg/mL.

Consider `NC[C@H]1O[C@H](O[C@H]2[C@H](O)[C@@H](O[C@H]3O[C@H](CO)[C@@H](O)[C@H](N)[C@H]3O)[C@H](N)C[C@@H]2N)[C@H](N)C[C@@H]1O` [TOBRAMYCIN], for which the MIC in assay [2] was above 16 µg/mL.

In assay [2], GENTAMICIN showed an MIC of 8 µg/mL.

As to POLYMYXIN B, in assay [2], it took 1 µg/mL to inhibit growth (MIC).
